{"source": "patent US20120196811A1", "about": "(priority 2009, published 2012)", "system": "broiler chickens with combined chronic mycotoxicosis (aflatoxin B1, ochratoxin A, T-2-mycotoxin, fumonisin B1 in feed)", "parameters": "species or system broiler chickens of the Cobb-Avian-48 cross", "conditions": "in vivo", "data": [{"smiles": "OC[C@H]1O[C@@H](O[C@@H]2[C@@H](CO)OC(O)(CO)[C@H]2O)[C@H](O)[C@@H](O)[C@H]1O", "note": "(mixture of isomers) [lactulose]", "values": [{"measurement": "recovery of average daily weight gain per kilogram of component in the compound feed", "result": 25, "unit": "%"}]}]}
